Tested on: 596521-263-R-J1-PDC complex spheroids, viability % of control
Experiment: Anticancer human tumor 596521-263-R-J1-PDC patient-derived soft tissue sarcoma cell line growth inhibition [GQUAD]
Settings: for IC50: curve of first compound; for viability, T/C: stronger effect = lower value
Summary of the method: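 Tumor cells were grown as complex spheroids with HUVEC endothelial cells and mesenchymal stem cells as stroma. G-quadruplex stabilizers were combined with targeted agents over half-log dilutions from near the clinical Cmax, or from 10 microM.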

[1] = second compound 0.0316 µM, first compound 0.0316 µM
[2] = second compound 0.0316 µM, first compound 0.1 µM
[3] = second compound 0.0316 µM, first compound 0.316 µM
[4] = second compound 0.0316 µM, first compound 1 µM
[5] = second compound 0.0316 µM, first compound 3.16 µM
[6] = second compound 0.0316 µM, first compound 10 µM
[7] = second compound 0.1 µM, first compound 0.0316 µM
[8] = second compound 0.1 µM, first compound 0.1 µM
[9] = second compound 0.1 µM, first compound 0.316 µM
[10] = second compound 0.1 µM, first compound 1 µM
[11] = second compound 0.1 µM, first compound 3.16 µM
[12] = second compound 0.1 µM, first compound 10 µM
[13] = second compound 0.316 µM, first compound 0.0316 µM
[14] = second compound 0.316 µM, first compound 0.1 µM
[15] = second compound 0.316 µM, first compound 0.316 µM
[16] = second compound 0.316 µM, first compound 1 µM
[17] = second compound 0.316 µM, first compound 3.16 µM
[18] = second compound 0.316 µM, first compound 10 µM
[19] = second compound 1 µM, first compound 0.0316 µM
[20] = second compound 1 µM, first compound 0.1 µM
[21] = second compound 1 µM, first compound 0.316 µM
[22] = second compound 1 µM, first compound 1 µM
[23] = second compound 1 µM, first compound 3.16 µM
[24] = second compound 1 µM, first compound 10 µM
[25] = second compound 3.16 µM, first compound 0.0316 µM
[26] = second compound 3.16 µM, first compound 0.1 µM
[27] = second compound 3.16 µM, first compound 0.316 µM
[28] = second compound 3.16 µM, first compound 1 µM
[29] = second compound 3.16 µM, first compound 3.16 µM
[30] = second compound 3.16 µM, first compound 10 µM
[31] = second compound 10 µM, first compound 0.0316 µM
[32] = second compound 10 µM, first compound 0.1 µM
[33] = second compound 10 µM, first compound 0.316 µM
[34] = second compound 10 µM, first compound 1 µM
[35] = second compound 10 µM, first compound 3.16 µM
[36] = second compound 10 µM, first compound 10 µM
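Also: spheroids exposed to drugs for 7 days before viability reading.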
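For viability, T/C in this document: 100% = DMSO vehicle control viability.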

SMILES: C=CCn1c(=O)c2cnc(Nc3ccc(N4CCN(C)CC4)cc3)nc2n1-c1cccc(C(C)(C)O)n1 + CN(C)c1ccc(Nc2c3ccc(NC(=O)CCN4CCCC4)cc3nc3cc(NC(=O)CCN4CCCC4)ccc23)cc1
- IC50 (second compound 0.0316 µM): 0.644 µM
- IC50 (second compound 0.1 µM): 0.544 µM
- IC50 (second compound 0.316 µM): 0.484 µM
- IC50 (second compound 1 µM): 0.76 µM
- IC50 (second compound 3.16 µM): 0.757 µM
- IC50 (second compound 10 µM): 0.308 µM
- viability, T/C [1]: 90.4%
- viability, T/C [2]: 81.2%
- viability, T/C [3]: 53.5%
- viability, T/C [4]: 44.9%
- viability, T/C [5]: 42%
- viability, T/C [6]: 27.7%
- viability, T/C [7]: 105%
- viability, T/C [8]: 82.5%
- viability, T/C [9]: 53.9%
- viability, T/C [10]: 44.1%
- viability, T/C [11]: 45.3%
- viability, T/C [12]: 32.9%
- viability, T/C [13]: 90.5%
- viability, T/C [14]: 90.4%
- viability, T/C [15]: 54.5%
- viability, T/C [16]: 47.3%
- viability, T/C [17]: 46.1%
- viability, T/C [18]: 32.1%
- viability, T/C [19]: 86.4%
- viability, T/C [20]: 79.6%
- viability, T/C [21]: 57.1%
- viability, T/C [22]: 47%
- viability, T/C [23]: 49.4%
- viability, T/C [24]: 34.7%
- viability, T/C [25]: 100%
- viability, T/C [26]: 84.8%
- viability, T/C [27]: 63.9%
- viability, T/C [28]: 44.4%
- viability, T/C [29]: 38.2%
- viability, T/C [30]: 31.2%
- viability, T/C [31]: 66.9%
- viability, T/C [32]: 54.9%
- viability, T/C [33]: 47.3%
- viability, T/C [34]: 44.7%
- viability, T/C [35]: 34.2%
- viability, T/C [36]: 20.7%

SMILES: COc1ncnc(C2CC2)c1-c1ncc2cnn(Cc3ccc(-c4nc(C(F)(F)F)cn4C(C)C)cc3)c2n1 + CN(C)c1ccc(Nc2c3ccc(NC(=O)CCN4CCCC4)cc3nc3cc(NC(=O)CCN4CCCC4)ccc23)cc1
- IC50 (second compound 0.0316 µM): > 10 µM
- IC50 (second compound 0.1 µM): > 10 µM
- IC50 (second compound 0.316 µM): > 10 µM
- IC50 (second compound 1 µM): > 10 µM
- IC50 (second compound 3.16 µM): > 10 µM
- IC50 (second compound 10 µM): 3.76 µM
- viability, T/C [1]: 94.8%
- viability, T/C [2]: 100%
- viability, T/C [3]: 92.2%
- viability, T/C [4]: 104%
- viability, T/C [5]: 90.9%
- viability, T/C [6]: 97.2%
- viability, T/C [7]: 103%
- viability, T/C [8]: 94.7%
- viability, T/C [9]: 98.4%
- viability, T/C [10]: 89.8%
- viability, T/C [11]: 98.6%
- viability, T/C [12]: 93.5%
- viability, T/C [13]: 103%
- viability, T/C [14]: 99.2%
- viability, T/C [15]: 101%
- viability, T/C [16]: 106%
- viability, T/C [17]: 104%
- viability, T/C [18]: 105%
- viability, T/C [19]: 95.4%
- viability, T/C [20]: 92.5%
- viability, T/C [21]: 93.5%
- viability, T/C [22]: 81.1%
- viability, T/C [23]: 108%
- viability, T/C [24]: 88.3%
- viability, T/C [25]: 89.9%
- viability, T/C [26]: 106%
- viability, T/C [27]: 87.9%
- viability, T/C [28]: 108%
- viability, T/C [29]: 86.6%
- viability, T/C [30]: 72.6%
- viability, T/C [31]: 63%
- viability, T/C [32]: 57.7%
- viability, T/C [33]: 63.8%
- viability, T/C [34]: 57%
- viability, T/C [35]: 52%
- viability, T/C [36]: 38.4%

SMILES: Cc1[nH]c2ccccc2c1CCNCc1ccc(/C=C/C(=O)NO)cc1 + CN(C)c1ccc(Nc2c3ccc(NC(=O)CCN4CCCC4)cc3nc3cc(NC(=O)CCN4CCCC4)ccc23)cc1
- IC50 (second compound 0.0316 µM): 0.0466 µM
- IC50 (second compound 0.1 µM): 0.0424 µM
- IC50 (second compound 0.316 µM): 0.0318 µM
- IC50 (second compound 1 µM): 0.0368 µM
- IC50 (second compound 3.16 µM): 0.0249 µM
- IC50 (second compound 10 µM): 0.0135 µM
- viability, T/C (second compound 0.0316 µM, first compound 0.000999 µM): 102%
- viability, T/C (second compound 0.0316 µM, first compound 0.00316 µM): 89.2%
- viability, T/C (second compound 0.0316 µM, first compound 0.00999 µM): 79.8%
- viability, T/C [1]: 58.1%
- viability, T/C (second compound 0.0316 µM, first compound 0.0999 µM): 32.9%
- viability, T/C [3]: 1.76%
- viability, T/C (second compound 0.1 µM, first compound 0.000999 µM): 94.7%
- viability, T/C (second compound 0.1 µM, first compound 0.00316 µM): 94.9%
- viability, T/C (second compound 0.1 µM, first compound 0.00999 µM): 78.1%
- viability, T/C [7]: 58.4%
- viability, T/C (second compound 0.1 µM, first compound 0.0999 µM): 27.4%
- viability, T/C [9]: 2.91%
- viability, T/C (second compound 0.316 µM, first compound 0.000999 µM): 102%
- viability, T/C (second compound 0.316 µM, first compound 0.00316 µM): 81.3%
- viability, T/C (second compound 0.316 µM, first compound 0.00999 µM): 77%
- viability, T/C [13]: 50.4%
- viability, T/C (second compound 0.316 µM, first compound 0.0999 µM): 22.8%
- viability, T/C [15]: 1.67%
- viability, T/C (second compound 1 µM, first compound 0.000999 µM): 90.6%
- viability, T/C (second compound 1 µM, first compound 0.00316 µM): 88.3%
- viability, T/C (second compound 1 µM, first compound 0.00999 µM): 75.6%
- viability, T/C [19]: 54.8%
- viability, T/C (second compound 1 µM, first compound 0.0999 µM): 23.3%
- viability, T/C [21]: 1.36%
- viability, T/C (second compound 3.16 µM, first compound 0.000999 µM): 78.6%
- viability, T/C (second compound 3.16 µM, first compound 0.00316 µM): 82.4%
- viability, T/C (second compound 3.16 µM, first compound 0.00999 µM): 64.7%
- viability, T/C [25]: 46.2%
- viability, T/C (second compound 3.16 µM, first compound 0.0999 µM): 18.4%
- viability, T/C [27]: 1.06%
- viability, T/C (second compound 10 µM, first compound 0.000999 µM): 62.2%
- viability, T/C (second compound 10 µM, first compound 0.00316 µM): 53.7%
- viability, T/C (second compound 10 µM, first compound 0.00999 µM): 57.4%
- viability, T/C [31]: 36.4%
- viability, T/C (second compound 10 µM, first compound 0.0999 µM): 13.3%
- viability, T/C [33]: 0.5%
